Data on eleven compounds can be found in PubChem BioAssay (NCI).

Some test systems named below: SNB-75 CNS; BT-549 breast; K-562 leukemia; RPMI-8226 leukemia; MDA-MB-231 breast; NCI-H522 lung; CCRF-CEM leukemia; PC-3 prostate; SF-268 CNS; SK-MEL-2 melanoma.
Holding throughout (assay): NCI-60 cell line screen, 48 h

SMILES strings stand for the structures.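 Each compound was tested at five concentrations against cells in 96-well plates for 48 hours. TGI marks complete inhibition of growth.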

Consider `COc1ccc(NCC(=O)Nn2c(-c3ccccc3)nc3ccccc3c2=O)cc1`, for which the TGI was more than 100 µM in the assay on SNB-75 CNS; 65.4 µM in the assay on BT-549 breast; more than 100 µM in the assay on K-562 leukemia; more than 100 µM in the assay on RPMI-8226 leukemia; 84.4 µM in the assay with MDA-MB-231 breast; more than 10 µM with NCI-H522 lung. Besides, the TGI in the assay on CCRF-CEM leukemia, with PC-3 prostate and with SF-268 CNS was more than 100 µM in each case.
For the compound `O=C1CSC(c2cccc(Cl)c2)N1c1ccc(-c2ccc(-n3c(-c4ccccc4)nc4ccccc4c3=O)cc2)cc1` (configuration not stated), the TGI in the assay on BT-549 breast is 80.3 µM; with K-562 leukemia it was more than 100 µM; with RPMI-8226 leukemia, more than 100 µM; in the assay on SK-MEL-2 melanoma, more than 100 µM; in the assay on MDA-MB-231 breast, more than 100 µM; with NCI-H522 lung, more than 100 µM. In addition, the TGI in the assay on CCRF-CEM leukemia, in the assay on PC-3 prostate and in the assay with SF-268 CNS was more than 100 µM throughout.
For the compound `CN(CCNC(=O)c1c[nH]c2c1Cc1ccccc1-2)CCNC(=O)c1c[nH]c2c1Cc1ccccc1-2`, the TGI is more than 100 µM in the assay with BT-549 breast; more than 100 µM in the assay with K-562 leukemia; 73.4 µM with RPMI-8226 leukemia; 52.1 µM in the assay with SK-MEL-2 melanoma; 80.6 µM with MDA-MB-231 breast; 97 µM in the assay with NCI-H522 lung. The TGI in the assay on PC-3 prostate was 41.9 µM; in the assay on SF-268 CNS, more than 100 µM.
`Cc1cc2nc3c(C#N)c4c(c(-c5ccc(Cl)cc5)n3c2cc1C)CCC4`: the TGI with BT-549 breast was 41.8 µM; in the assay with K-562 leukemia it was 53.6 µM; in the assay with RPMI-8226 leukemia, 74.4 µM; in the assay on SK-MEL-2 melanoma, 36 µM; in the assay on MDA-MB-231 breast, 49.1 µM; in the assay on NCI-H522 lung it was 35.4 µM. The figures for the TGI with CCRF-CEM leukemia, in the assay on PC-3 prostate and with SF-268 CNS were 70.7 µM, 97.7 µM and 57.9 µM, respectively.
As to `CCOC(=O)C1(C#N)CC1`, the TGI in the assay with SNB-75 CNS, with BT-549 breast, with K-562 leukemia, in the assay on SK-MEL-2 melanoma, in the assay with MDA-MB-231 breast and in the assay with NCI-H522 lung was more than 100 µM throughout. Further, the TGI in the assay with CCRF-CEM leukemia, in the assay on PC-3 prostate and in the assay with SF-268 CNS was more than 100 µM each time.
As to `COc1cc2c(/C=C3/C(=O)N(C)c4ccc(O)cc43)c(Cl)[nH]c2cc1C`, the TGI worked out at 20.8 µM in the assay on SNB-75 CNS; 15.8 µM in the assay on BT-549 breast; 11.7 µM with K-562 leukemia; 4.7 µM in the assay with RPMI-8226 leukemia; 17.9 µM with SK-MEL-2 melanoma; 15 µM in the assay with MDA-MB-231 breast. The TGI in the assay with NCI-H522 lung was determined as 16.6 µM; in the assay on PC-3 prostate, 20.8 µM; with SF-268 CNS, 25.3 µM.
Consider `CCCCOC(=O)C1CC[C@H]2[C@@H]3CCc4cc(OC(=O)c5cccc6c(=O)c7ccccc7[nH]c56)ccc4[C@H]3CC[C@]12C` (some centres not stated), for which the TGI was found to be 18.3 µM in the assay on SNB-75 CNS; 15 µM in the assay with BT-549 breast; 21.4 µM in the assay on K-562 leukemia; 20.6 µM with RPMI-8226 leukemia; 18.5 µM in the assay on SK-MEL-2 melanoma; 14.5 µM with MDA-MB-231 breast. Also, the TGI with NCI-H522 lung was 16.9 µM; in the assay on PC-3 prostate it was 15.6 µM; with SF-268 CNS, 19.6 µM.
As to `COc1cc2c(cc1OC)C(=O)/C(=C/c1cc(C)cc(C)c1)C2`, the TGI in the assay with SNB-75 CNS was more than 100 µM; in the assay on BT-549 breast, 60.4 µM; in the assay on K-562 leukemia, more than 38 µM; with RPMI-8226 leukemia, more than 42.6 µM; in the assay on SK-MEL-2 melanoma, 44.4 µM; in the assay on MDA-MB-231 breast, 7.44 µM. Also, the values for the TGI in the assay with NCI-H522 lung, with PC-3 prostate and in the assay with SF-268 CNS were more than 46.8 µM, 24.2 µM and more than 100 µM, respectively.
With `CC(=O)OCC1OC(n2c(Br)nc3c2c(=O)n(C)c(=O)n3C)C(OC(C)=O)C1OC(C)=O` (configuration not stated), the TGI is more than 100 µM in the assay on SNB-75 CNS; more than 100 µM in the assay on BT-549 breast; more than 100 µM with K-562 leukemia; 95.6 µM in the assay with RPMI-8226 leukemia; more than 100 µM in the assay on MDA-MB-231 breast; more than 100 µM in the assay with NCI-H522 lung. Also, the TGI in the assay with PC-3 prostate and in the assay on SF-268 CNS was more than 100 µM in each case.
Consider `C/C(=C/CC[C@]1(CO)CC[C@]2(C)[C@H](CC[C@@H]3[C@@]4(C)CC[C@H](OC5OC(CO)C(O)C(O)C5OC5OC(CO)C(O)C(O)C5O)C(C)(C)[C@@H]4CC[C@]32C)[C@H]1O)CO` (some centres not stated), for which the TGI in the assay on SNB-75 CNS, in the assay with BT-549 breast, with K-562 leukemia, with RPMI-8226 leukemia, with MDA-MB-231 breast and in the assay on NCI-H522 lung was more than 100 µM each time. Moreover, the TGI with CCRF-CEM leukemia, in the assay on PC-3 prostate and in the assay with SF-268 CNS was more than 100 µM throughout.
`CC(C)=CC(=O)c1[nH]c2ccccc2c1CC(=O)NCCc1cncn1C`: the TGI is more than 100 µM with SNB-75 CNS; more than 100 µM with BT-549 breast; more than 100 µM in the assay with K-562 leukemia; more than 100 µM in the assay with SK-MEL-2 melanoma; more than 100 µM in the assay on MDA-MB-231 breast; 84.6 µM with NCI-H522 lung. For the same compound, the TGI with CCRF-CEM leukemia, in the assay on PC-3 prostate and with SF-268 CNS was more than 100 µM in each case.
